Laboratory results reported in ChEMBL document CHEMBL1127202, “Endothelin receptor ligands. replacement net approach to SAR determination of potent hexapeptides” (Bioorg Med Chem Lett, 1993).
Residues, ends and D or L forms follow the SMILES beside them.

Experiments:
Endothelin-1 receptor [1] = molecular target: T1, Endothelin-1 receptor (Mus musculus, UniProt Q61614); experiment: Inhibition of [125I]ET1 binding to Endothelin A receptor of murine 3T3 cells; assay type: cell-based, NIH3T3
T1 sequence (Q61614 whole entry): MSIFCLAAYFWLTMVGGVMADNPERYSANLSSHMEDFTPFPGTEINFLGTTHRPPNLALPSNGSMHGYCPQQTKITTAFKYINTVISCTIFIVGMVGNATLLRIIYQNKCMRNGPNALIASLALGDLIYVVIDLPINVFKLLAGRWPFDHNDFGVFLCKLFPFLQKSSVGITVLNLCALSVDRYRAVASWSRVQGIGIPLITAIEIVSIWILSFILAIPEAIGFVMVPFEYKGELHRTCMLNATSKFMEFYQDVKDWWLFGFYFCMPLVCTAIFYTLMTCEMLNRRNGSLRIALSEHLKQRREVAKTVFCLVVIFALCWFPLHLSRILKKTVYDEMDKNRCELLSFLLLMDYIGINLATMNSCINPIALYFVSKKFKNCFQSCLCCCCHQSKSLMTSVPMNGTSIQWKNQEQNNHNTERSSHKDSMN

Endothelin-1 receptor [2] = molecular target: T2, Endothelin-1 receptor (Homo sapiens, UniProt P25101); experiment: The inhibitory constant was evaluated against Endothelin A receptor
T2 sequence (P25101 whole entry): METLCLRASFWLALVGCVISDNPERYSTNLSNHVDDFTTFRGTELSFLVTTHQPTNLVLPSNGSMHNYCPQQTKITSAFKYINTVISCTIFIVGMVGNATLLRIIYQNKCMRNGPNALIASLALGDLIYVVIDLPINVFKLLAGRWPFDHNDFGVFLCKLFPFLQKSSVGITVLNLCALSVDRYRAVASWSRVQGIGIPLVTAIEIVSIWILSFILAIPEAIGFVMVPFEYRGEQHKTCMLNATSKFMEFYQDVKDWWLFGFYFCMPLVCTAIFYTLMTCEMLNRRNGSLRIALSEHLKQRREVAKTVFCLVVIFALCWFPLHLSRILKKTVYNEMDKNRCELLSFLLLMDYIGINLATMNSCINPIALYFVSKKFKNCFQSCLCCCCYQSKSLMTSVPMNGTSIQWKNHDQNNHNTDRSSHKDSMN

Endothelin-1 receptor [3] = molecular target: T1, Endothelin-1 receptor; experiment: The compound was tested for the binding affinity against eEndothelin A receptor in murine 3T3 cells using [125I]ET1 as a radioligand; assay type: cell-based, NIH3T3

Compound | IC50 (Endothelin-1 receptor [1]) [µM] | other results
CC[C@H](C)[C@H](NC(=O)[C@H](CC(=O)O)NC(=O)[C@H](Cc1c[nH]c2ccccc12)NC(=O)[C@@H](Cc1ccccc1)NC(C)=O)C(=O)N[C@H](C(=O)N[C@@H](Cc1c[nH]c2ccccc12)C(=O)O)[C@@H](C)CC | 0.079 | 
CC[C@H](C)[C@H](NC(=O)[C@H](CC(=O)O)NC(=O)CN(Cc1ccccc1)C(=O)[C@@H](Cc1ccccc1)NC(C)=O)C(=O)N[C@H](C(=O)N[C@@H](Cc1c[nH]c2ccccc12)C(=O)O)[C@@H](C)CC | 0.012 | IC50 (Endothelin-1 receptor [2]): 0.03 µM
CC[C@H](C)[C@H](NC(=O)[C@H](CC(=O)O)NC(=O)[C@H](CCCN)NC(=O)[C@@H](Cc1c[nH]c2ccccc12)NC(C)=O)C(=O)N[C@H](C(=O)N[C@@H](Cc1c[nH]c2ccccc12)C(=O)O)[C@@H](C)CC | 0.015 | 
CC[C@H](C)[C@H](NC(=O)[C@H](CC(=O)O)NC(=O)[C@H](CC(N)=O)NC(=O)[C@@H](Cc1ccccc1)NC(C)=O)C(=O)N[C@H](C(=O)N[C@@H](Cc1c[nH]c2ccccc12)C(=O)O)[C@@H](C)CC | 0.075 | 
CC[C@H](C)[C@@H](NC(=O)[C@@H](CC(=O)O)NC(=O)[C@H]1CCCN1C(=O)[C@@H](Cc1ccccc1)NC(C)=O)C(=O)N[C@@H](C(=O)N[C@H](Cc1c[nH]c2ccccc12)C(=O)O)[C@@H](C)CC |  | IC50 (Endothelin-1 receptor [2]): 0.015 µM; IC50 (Endothelin-1 receptor [1]; nih3t3): 0.045 µM
CC[C@H](C)[C@H](NC(=O)[C@H](CC(=O)O)NC(=O)[C@H](CCc1ccccc1)NC(=O)[C@@H](Cc1ccccc1)NC(C)=O)C(=O)N[C@H](C(=O)N[C@@H](Cc1c[nH]c2ccccc12)C(=O)O)[C@@H](C)CC | 0.07 | 
CC[C@H](C)[C@H](NC(=O)[C@H](CCc1ccccc1)NC(=O)[C@H](CC(=O)O)NC(=O)[C@H](CCCN)NC(=O)[C@@H](Cc1ccccc1)NC(C)=O)C(=O)N[C@@H](Cc1c[nH]c2ccccc12)C(=O)O | 0.114 | 
CC[C@H](C)[C@H](NC(=O)[C@H](CC(=O)O)NC(=O)[C@H](Cc1ccccc1)NC(=O)[C@@H](Cc1ccccc1)NC(C)=O)C(=O)N[C@H](C(=O)N[C@@H](Cc1c[nH]c2ccccc12)C(=O)O)[C@@H](C)CC (HELM PEPTIDE1{[ac].[dF].F.D.I.I.W}$$$$V2.0) | 0.27 | 
CC[C@H](C)[C@H](NC(=O)[C@H](CC(=O)O)NC(=O)[C@H](CCCN)NC(=O)[C@@H](Cc1ccccc1)NC(C)=O)C(=O)N[C@H](C(=O)N[C@@H](Cc1c[nH]c2ccccc12)C(=O)O)[C@@H](C)CC (HELM PEPTIDE1{[ac].[dF].[Orn].D.I.I.W}$$$$V2.0) |  | IC50 (Endothelin-1 receptor [3]): 0.23 µM

Continued by falling IC50 (Endothelin-1 receptor [1]), values first:

IC50 (Endothelin-1 receptor [1]) [µM] | Compound | other results
0.098 | CC[C@H](C)[C@H](NC(=O)[C@H](CC(=O)O)NC(=O)[C@@H](Cc1ccccc1)NC(=O)[C@@H](Cc1ccccc1)NC(C)=O)C(=O)N[C@H](C(=O)N[C@@H](Cc1c[nH]c2ccccc12)C(=O)O)[C@@H](C)CC (HELM PEPTIDE1{[ac].[dF].[dF].D.I.I.W}$$$$V2.0) | 
0.077 | CC[C@H](C)[C@H](NC(=O)[C@H](CC(=O)O)NC(=O)[C@H](Cc1ccc(O)cc1)NC(=O)[C@@H](Cc1ccccc1)NC(C)=O)C(=O)N[C@H](C(=O)N[C@@H](Cc1c[nH]c2ccccc12)C(=O)O)[C@@H](C)CC | 
0.057 | CC[C@H](C)[C@H](NC(=O)[C@H](CC(=O)O)NC(=O)[C@H](C)NC(=O)[C@@H](Cc1ccccc1)NC(C)=O)C(=O)N[C@H](C(=O)N[C@@H](Cc1c[nH]c2ccccc12)C(=O)O)[C@@H](C)CC (HELM PEPTIDE1{[ac].[dF].A.D.I.I.W}$$$$V2.0) | 
0.026 | CC[C@H](C)[C@H](NC(=O)[C@H](CC(=O)O)NC(=O)[C@H](CCCN)NC(=O)[C@@H](Cc1ccc(O)cc1)NC(C)=O)C(=O)N[C@H](C(=O)N[C@@H](Cc1c[nH]c2ccccc12)C(=O)O)[C@@H](C)CC | IC50 (Endothelin-1 receptor [2]): 0.4 µM
